Marks after values point to notes of the source that are not given here.
Tests used:
T. congolense IL3000 BSF = assay: Nucleus/kinetoplast configuration (DAPI) of T. congolense exposed to drug; type: cell-based, Trypanosoma congolense; conditions: 2× or 5× EC50, 8 h
Protocol: To assess the effect of the drug on the cellular morphology and configuration of nuclei and kinetoplasts, treated cells were collected after incubation period, fixed, DAPI-treated and viewed under an Olympus IX71 DeltaVision Core System microscope (Applied Precision, GE) using the SoftWoRx suite 2.0 software (Applied Precision, GE). At least 300 cells were scored per slide for the number of kinetoplasts (K) and nuclei (N) as 1N1K, 1N2K, 2N2K, MKMN (M = many) and ‘others’ (aberrant N/K distribution).

T. congolense IL3000 = test system: T. congolense IL3000; parameters: method as in Hulpia et al. [38]; conditions: values marked *; ref Hulpia et al. [38]; cited from earlier work
T. congolense 6C3 [1] = assay: microbe, parasite or virus in culture; type: cell-based, Trypanosoma congolense; conditions: resistance factor = EC50 (test strain)/EC50(control strain)
Method in brief: (§1)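 EC50 values came from fitting data to a variable-slope sigmoid curve. Each value is the mean of at least three independent determinations run on different days.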

BSF T. congolense = assay: Manual cell count of T. congolense cultures exposed to drug; type: cell-based, Trypanosoma congolense
Protocol: For the direct assessment of test compounds on parasite growth, a manual cell count of cultures grown in the presence or absence of test drugs was carried out to determine the effect of test drugs on the multiplication rate of the parasites as described. The cells were adjusted to the required density in 2 mL of the appropriate medium with or without the drug/compound of interest, in a 24-well plate, followed by incubation under standard conditions. The cells were then manually counted at intervals with a Neubauer cell chamber using a phase-contrast light microscope (Axioscope, Zeiss, Jena, Germany).

[2] = test system: human embryonic kidney (HEK) cells; assay: Resazurin toxicity assay on human embryonic kidney cells; type: cell-based
Method in brief: as §1

[3] = as above; type: cell-based; conditions: human
Method in brief: as §1

T. equiperdum = test system: T. equiperdum; parameters: method as in Hulpia et al. [38]; conditions: compound marked *; ref Hulpia et al. [38]; cited from earlier work
T. vivax = test system: T. vivax; parameters: method as in Mabille et al. [69]; conditions: added for comparison only; ref Mabille et al. [69]; cited from earlier work
T. congolense 6C3 [4] = test system: T. congolense 6C3; parameters: method as in Hulpia et al. [38]; conditions: values marked *; ref Hulpia et al. [38]; cited from earlier work
T. evansi = test system: T. evansi; parameters: method as in Hulpia et al. [38]; conditions: compound marked *; ref Hulpia et al. [38]; cited from earlier work
T.b.b. B48 = test system: T.b.b. B48; parameters: method as in Hulpia et al. [38]; conditions: compound marked *; ref Hulpia et al. [38]; cited from earlier work
TcoAT1 = type: cell-based, Trypanosoma congolense
Method in brief: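 Transporter genes were expressed in an L. mexicana line lacking NT1 and NT2 (SUPKO), and 1 × 10^7 cells in HEPES/bicarbonate buffer pH 7.3 took up radiolabeled permeant through an oil layer, with or without inhibitor. Uptake was stopped with ice-cold unlabeled substrate or by centrifugation, and pellets were counted. IC50 against radiolabeled adenosine was converted to Ki by Cheng–Prusoff using the permeant Km.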

[5] = biological target: T. congolense adenosine transporter; assay: [3H]-adenosine uptake and its inhibition in T. congolense IL3000 bloodstream forms; type: cell-based, Trypanosoma congolense
Method in brief: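 Bloodstream-form T. congolense IL3000 (1 × 10^7 cells) in HEPES/bicarbonate buffer pH 7.3 took up [3H]-adenosine over a set interval, with or without inhibitor, ending by ice-cold unlabeled substrate stop or centrifugation through oil. Pellet radioactivity gave IC50 by sigmoid fit; Ki followed by Cheng–Prusoff using adenosine Km.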

T. brucei cells = test system: T. brucei cells; parameters: method as in PMID 30475806; conditions: T. brucei cells treated with the drug; cited from earlier work

SMILES | reduction of the number of cells with 2N2K configuration (T. congolense IL3000 BSF) | EC50 (T. congolense IL3000) [nM] | T. congolense 6C3 RF (T. congolense 6C3 [1]) | time to killing of the parasites (BSF T. congolense; 5 × EC50, exposure for 48 h or continuously) [h] | time to death of the cells (BSF T. congolense; 15 × EC50, short exposure (8 h), washed out or continuous) [h] | SI T. congolense ([2]; selectivity index = EC50 (HEK cells)/EC50 (T. congolense)) | SI T. equiperdum ([2]; selectivity index = EC50 (HEK cells)/EC50 (T. equiperdum)) | SI T. evansi ([2]; selectivity index = EC50 (HEK cells)/EC50 (T. evansi)) | EC50 [3] [nM] | EC50 (T. equiperdum) [nM] | EC50 (T. vivax) [nM] | EC50 (T. congolense 6C3 [4]) [nM] | EC50 (T. evansi) [nM] | EC50 (T.b.b. B48) [nM] | Ki (TcoAT1; 0.05 µM [3H]-adenosine, 10 s, IC50 converted to Ki, read-out: Ki on the transport of [3H]-adenosine) [nM] | ΔG0 (TcoAT1; Gibbs free energy of binding, from Km or Ki) [kcal/mol] | Ki ([5]; 0.05 µM [3H]-adenosine, 30 s, IC50 converted to Ki, read-out: Ki on the transport of [3H]-adenosine) [nM] | ΔG0, Gibbs free energy of interaction ([5]; calculated from Km or Ki) [kcal/mol] | cells bearing conjoined nuclei and double kinetoplasts (T. brucei cells) [%]
Nc1ncnc2c1c(Cl)cn2[C@@H]1O[C@H](CO)C[C@H]1O [FH8470, 7-chloro-7-deaza-3′-deoxyadenosine] | 40–50 % of untreated control | 1.2 ± 0.2 | 0.53 ^a | ≤ 72 | ≤ 48 | 9800 | 21,100 | 6830 | 12000 ± 320 | 0.57 ± 0.08 | 96 ± 82 | 0.66 ± 0.03 | 1.8 ± 0.2 | 6.8 ± 0.9 | 60600 ± 10700 | -5.76 | 17500 ± 3400 | -6.48 | –
Nc1nc(N)nc(Nc2ccc([As]3SCC(CO)S3)cc2)n1 (stereo not shown) [melarsoprol] | – | – | – | – | – | – | – | – | – | – | – | – | – | – | – | – | – | – | > 10
